Measured values published in ChEMBL document CHEMBL1201862, “PubChem BioAssay data set” (2004).
Activity calls are given as the source filed them.

Experiments:
[1] = HIV-1 Vif–A3G interaction blockers – biochemical, TR-FRET, GST-Vif 1-94, biotin-A3G peptide, dose response retest, primary screen (AID 1117319); format: functional;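 further: TR-FRET signal of purified GST-Vif binding a biotinylated A3G peptide; inhibitors lower the FRET signal by blocking Vif and A3G binding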
[2] = molecular target: fMet-Leu-Phe receptor (Homo sapiens, UniProt P21462); assay: formyl peptide receptor binders – dose response (AID 519); format: functional
fMet-Leu-Phe receptor, sequence (P21462 whole entry, the tested form may be a part): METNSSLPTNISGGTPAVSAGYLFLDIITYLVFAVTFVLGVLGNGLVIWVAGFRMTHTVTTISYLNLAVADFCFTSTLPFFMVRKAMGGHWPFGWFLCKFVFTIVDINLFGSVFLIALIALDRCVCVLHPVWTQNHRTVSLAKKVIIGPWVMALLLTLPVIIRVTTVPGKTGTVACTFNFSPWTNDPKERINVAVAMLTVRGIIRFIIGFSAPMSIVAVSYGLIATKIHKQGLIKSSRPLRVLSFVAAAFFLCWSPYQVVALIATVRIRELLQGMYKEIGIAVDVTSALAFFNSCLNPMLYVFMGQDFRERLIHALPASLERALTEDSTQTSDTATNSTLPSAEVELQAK

[3] = molecular target: Disintegrin and metalloproteinase domain-containing protein 17 (Homo sapiens, UniProt P78536); assay: inhibition of ADAM17 substrate cleavage – biochemical, quenched FRET substrate, counter-screen for ADAM10 exosite inhibitor project, dose response (AID 743253)
Disintegrin and metalloproteinase domain-containing protein 17, sequence (P78536 whole entry, the tested form may be a part): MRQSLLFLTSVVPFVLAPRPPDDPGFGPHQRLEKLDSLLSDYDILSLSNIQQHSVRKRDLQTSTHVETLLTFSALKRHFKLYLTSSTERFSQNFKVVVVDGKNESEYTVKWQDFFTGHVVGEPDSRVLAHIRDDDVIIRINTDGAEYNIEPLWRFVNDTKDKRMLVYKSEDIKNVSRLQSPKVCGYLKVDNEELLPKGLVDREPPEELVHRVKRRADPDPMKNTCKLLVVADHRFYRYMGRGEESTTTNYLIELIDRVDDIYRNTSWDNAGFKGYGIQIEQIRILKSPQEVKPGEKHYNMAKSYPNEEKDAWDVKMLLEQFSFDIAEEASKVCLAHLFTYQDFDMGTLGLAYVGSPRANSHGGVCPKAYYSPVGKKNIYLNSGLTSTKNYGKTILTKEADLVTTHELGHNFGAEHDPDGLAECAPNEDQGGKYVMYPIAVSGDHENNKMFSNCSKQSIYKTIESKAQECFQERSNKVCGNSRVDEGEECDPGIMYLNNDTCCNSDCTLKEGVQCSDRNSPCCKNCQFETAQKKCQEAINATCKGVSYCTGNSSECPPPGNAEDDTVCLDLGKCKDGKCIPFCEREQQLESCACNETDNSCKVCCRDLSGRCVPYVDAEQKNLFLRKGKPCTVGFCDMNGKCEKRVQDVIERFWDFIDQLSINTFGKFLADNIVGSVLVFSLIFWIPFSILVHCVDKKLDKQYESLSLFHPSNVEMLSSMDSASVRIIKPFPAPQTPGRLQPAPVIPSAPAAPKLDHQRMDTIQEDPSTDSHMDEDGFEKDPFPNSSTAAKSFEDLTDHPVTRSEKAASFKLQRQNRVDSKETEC

[4] = potency of ADAM10 substrate cleavage blockers – biochemical, QFRET, dose response (AID 743254);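 further: ADAM10 enzyme with the DM2 quenched FRET peptide as substrate; EDANS fluorescence gain as the protease cuts the substrate; inhibitor potency against ADAM10 proteolytic activity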
[5] = molecular target: E3 ubiquitin-protein ligase Mdm2 (Homo sapiens, UniProt Q00987); assay: MDM2-luc reporter signal enhancers, multi-concentration potency testing, MDM2 ubiquitin-protein ligase inhibitor program, whole-cell format, luminescence detection, 384-well microplate (AID 1394); format: functional;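 further: MDM2 E3 inhibitors raise luminescence so EC50 is for signal enhancement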
E3 ubiquitin-protein ligase Mdm2, sequence (Q00987 whole entry): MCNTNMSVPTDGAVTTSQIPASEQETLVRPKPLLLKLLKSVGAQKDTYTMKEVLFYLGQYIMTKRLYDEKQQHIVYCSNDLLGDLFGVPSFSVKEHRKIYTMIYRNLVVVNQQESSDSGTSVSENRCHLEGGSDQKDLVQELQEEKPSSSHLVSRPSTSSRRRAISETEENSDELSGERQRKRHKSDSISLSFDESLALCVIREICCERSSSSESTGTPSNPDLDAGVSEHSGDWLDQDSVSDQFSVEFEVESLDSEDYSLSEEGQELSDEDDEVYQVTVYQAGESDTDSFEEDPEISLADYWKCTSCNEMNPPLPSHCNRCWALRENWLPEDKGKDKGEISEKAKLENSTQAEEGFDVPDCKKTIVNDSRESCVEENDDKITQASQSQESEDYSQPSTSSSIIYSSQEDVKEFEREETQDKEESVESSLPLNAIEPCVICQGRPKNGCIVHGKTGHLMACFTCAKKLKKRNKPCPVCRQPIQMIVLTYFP

[6] = viability of uninfected HEp-2 cells – cell-based, HTS, cytotoxicity control for RSV inhibitor project, dose response (AID 2410); format: functional; details: human respiratory syncytial virus
[7] = cells
[8] = molecular target: T1, Oxysterols receptor LXR-beta (Homo sapiens, UniProt P55055); assay: LXR agonists, Gal4 luciferase reporter, dose response, counter-screen for ssDAF-12 agonist project, cell-based, luminescence, HEK293, S. stercoralis campaign (AID 720737); format: functional; details: read-out: IC50 (the source's name)
T1 sequence (P55055 whole entry): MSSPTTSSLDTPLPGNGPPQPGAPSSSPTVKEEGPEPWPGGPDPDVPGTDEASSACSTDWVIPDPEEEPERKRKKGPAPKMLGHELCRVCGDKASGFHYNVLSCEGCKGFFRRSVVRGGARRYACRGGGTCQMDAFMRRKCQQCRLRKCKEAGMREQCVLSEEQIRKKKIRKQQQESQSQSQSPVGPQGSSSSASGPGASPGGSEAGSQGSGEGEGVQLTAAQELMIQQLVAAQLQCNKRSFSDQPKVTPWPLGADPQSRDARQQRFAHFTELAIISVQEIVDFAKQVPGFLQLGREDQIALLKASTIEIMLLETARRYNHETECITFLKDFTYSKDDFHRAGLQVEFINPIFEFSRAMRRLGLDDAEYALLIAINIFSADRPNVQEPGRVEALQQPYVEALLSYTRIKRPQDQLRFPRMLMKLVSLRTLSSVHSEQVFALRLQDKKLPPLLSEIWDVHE

[9] = molecular target: T2, Protein skinhead-1 (Caenorhabditis elegans, UniProt P34707); format: functional
T2 sequence (P34707 whole entry): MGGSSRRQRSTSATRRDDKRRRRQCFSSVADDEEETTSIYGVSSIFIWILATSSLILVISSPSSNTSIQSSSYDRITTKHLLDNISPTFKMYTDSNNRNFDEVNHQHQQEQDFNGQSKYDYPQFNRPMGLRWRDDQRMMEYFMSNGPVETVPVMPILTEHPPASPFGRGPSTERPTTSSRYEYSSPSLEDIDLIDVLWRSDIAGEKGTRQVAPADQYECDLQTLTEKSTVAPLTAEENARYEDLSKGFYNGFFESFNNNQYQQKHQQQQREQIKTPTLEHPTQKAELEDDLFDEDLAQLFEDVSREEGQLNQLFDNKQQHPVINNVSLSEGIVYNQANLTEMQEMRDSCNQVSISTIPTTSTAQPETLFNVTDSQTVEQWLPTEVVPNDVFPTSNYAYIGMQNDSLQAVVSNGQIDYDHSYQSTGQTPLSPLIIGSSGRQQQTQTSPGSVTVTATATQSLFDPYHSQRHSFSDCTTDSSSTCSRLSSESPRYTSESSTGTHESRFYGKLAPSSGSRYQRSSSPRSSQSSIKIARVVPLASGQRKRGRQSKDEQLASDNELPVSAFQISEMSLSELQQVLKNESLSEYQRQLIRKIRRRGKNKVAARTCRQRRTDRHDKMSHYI

[10] = molecular target: T1, Oxysterols receptor LXR-beta; format: functional, cell-based
[11] = Luminescence-based cell-based high throughput dose response assay to identify activators of the DAF-12 from the parasite S. stercoralis (ssDAF-12).; format: functional
[12] = molecular target: Bifunctional protein GlmU (Mycobacterium tuberculosis, UniProt P9WMN3); assay: Inhibitors of Mycobacterial Glucosamine-1-phosphate acetyl transferase (GlmU). Secondary screen.; parameters: species or system Mycobacterium tuberculosis H37Rv
Bifunctional protein GlmU, sequence (P9WMN3 whole entry): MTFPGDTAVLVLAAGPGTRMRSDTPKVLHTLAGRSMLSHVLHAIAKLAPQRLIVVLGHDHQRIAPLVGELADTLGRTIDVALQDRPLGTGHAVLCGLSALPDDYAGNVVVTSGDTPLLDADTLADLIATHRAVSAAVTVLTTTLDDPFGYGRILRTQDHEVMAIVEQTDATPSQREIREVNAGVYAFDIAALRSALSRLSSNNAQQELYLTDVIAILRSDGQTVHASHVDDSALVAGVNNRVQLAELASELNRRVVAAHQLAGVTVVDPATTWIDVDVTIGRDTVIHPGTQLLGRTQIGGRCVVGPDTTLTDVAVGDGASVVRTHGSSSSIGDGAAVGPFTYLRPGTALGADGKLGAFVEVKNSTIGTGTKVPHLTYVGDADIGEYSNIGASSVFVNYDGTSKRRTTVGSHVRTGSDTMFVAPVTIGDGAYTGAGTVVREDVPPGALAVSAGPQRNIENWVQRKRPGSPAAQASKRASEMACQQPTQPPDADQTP

O=C(O)c1ccc(S(=O)(=O)c2ccc3c(c2)C(=O)N(Cc2ccco2)C3=O)cc1
IC50 [1]: > 100 µM (active)

Cc1ccc(C(=O)C2=C(O)C(=O)N(CC(C)O)C2c2ccc(N(C)C)cc2)cc1 (configuration not stated)
Ki [2]: > 66.7 µM (inactive)

CN(C)c1ccc(C(CNS(=O)(=O)c2ccc(F)cc2)c2c[nH]c3ccccc23)cc1 (configuration not stated)
IC50 [3]: > 69.5 µM (inactive) | IC50 [4]: > 69.5 µM (inactive)

COC(=O)C1=C(C(=O)OC)[C@@H]2N(C)c3ccc(OC)cc3[C@@]23C[C@@H](C(=O)OC)NC3=N1
EC50 [5]: 1.09 µM (not active)

Cc1cccc(Nc2nc(-c3cccs3)cs2)n1
CC50 [6]: 9.85 µM (active) | EC50 [7]: > 67.5 µM (inactive) | EC50 [8]: > 67.5 µM (inactive) | IC50 [9]: > 100 µM (inactive) | EC50 [10]: > 67.5 µM (inactive) | IC50 [11]: > 67.5 µM (inactive)

CN1CCN(C(=S)NC(=O)c2ccc(Cl)cc2)CC1
IC50 [12]: 132 µM (active)
